Data taken from patent US8987309B2, “Compounds, pharmaceutical compositions and methods of use of 2-aryl pyridylazoles” (The Translational Genomics Research Institute, priority 2009, dated 2015).
Where “and” joins values, the source holds several entries; their conditions need not be identical. Equal values may be shown once.

Legend:
[1] = tested on: DU145; experiment: IC50 in tumor cell lines (DU145); format: cell-based; conditions: Table 1; prostate tumor cell line DU145
Method: (§1) Cytotoxicity Assays. Cytotoxicity assays in the mechanism of action studies were performed according to Mosmann (1983), wherein the activity of mitochondrial reductases were measured using 3-(4,5-dimethylthiozol-3-yl)-2,5-diphenyltetrozolium bromide dye. In brief, cells were seeded in 96-well plates and incubated for various times at 37° C. Inhibition of cell growth was measured by adding 3-(4,5-dimethylthiozol-3-yl)-2,5-diphenyltetrozolium bromide dye, and after an additional 4 h of incubation at 37° C., the 96-well plates were centrifuged, and the culture supernatant was removed. DMSO was added to each well to solubilize the formazan crystals, and the optical density was read at 540 nm on a Quant Spectrophotometer (BioTek Instruments, Winooski, Vt.). Cell growth inhibition data are expressed as percentage of survival compared with untreated cells. The IC50 is defined as the drug concentration required to produce 50% growth inhibition. Results are mean S.E.M. (n 3).

[2] = tested on: BxPC3 DPC-4(+/+) and BxPC3 DPC-4(−/−) cells; experiment: Cytotoxicity (96-h MTT) in isogenic BxPC3 cell lines; format: cell-based, Human
Method: Cell lines and Culture Conditions. Human pancreatic cancer cell lines MiaPaCa-2 (Yunis et al., 1977), Panc-1 (Lieber et al., 1975), and BxPC3 (Tan et al., 1986) were purchased from the American Type Culture Collection (Manassas, Va.) and cultured in a humidified incubator at 37° C., 5% CO2, in RPMI 1640 medium (CellGro, Manassas, Va.) supplemented with 10% heat-inactivated bovine calf serum, 2 mM L-glutamine, 100 U/ml penicillin, and 100 µg/ml streptomycin (Invitrogen, Carlsbad, Calif.). MiaPaCa-2 (CRL-1420) is an adherent epithelial human pancreatic cancer cell line with a doubling time of approximately 40 h (Yunis et al., 1977). Panc-1 (CRL-1469) is an undifferentiated human pancreatic epithelial cell line with a doubling time of approximately 52 h (Lieber et al., 1975). The BxPC3 cell line DPC-4(−/−) and its isogenic restored wild-type DPC-4(+/+) cell line were developed and cultured as described previously (Wang et al., 2006). In brief, a DPC-4-expressing construct (pMSCVneoDPC-4) was created by amplifying full-length cDNA of DPC-4 using reverse transcriptase-PCR and subcloning into the multiple cloning site of a retroviral vector (pMSCVneo). The DPC-4-expressing construct was cotransfected into the BxPC3 DPC-4(−/−) cells using a packaging cell line, resulting in a cell line that constitutively expresses DPC-4. The expression of DPC-4 was confirmed by Western blotting (Wang et al., 2006).
as §1
Mean±S.E.M., n=3. […] Mean±S.E.M., n=3. […] Mean tumor burden is shown.

[3] = biological target: PIM-1 (Homo sapiens, UniProt P11309); experiment: Initial kinase screening (Amphora), PIM-1; format: biochemical; set-up: assay run by Amphora Discovery Corporation (Durham, N.C.); conditions: 10 μM compound
PIM-1, sequence (P11309 whole entry): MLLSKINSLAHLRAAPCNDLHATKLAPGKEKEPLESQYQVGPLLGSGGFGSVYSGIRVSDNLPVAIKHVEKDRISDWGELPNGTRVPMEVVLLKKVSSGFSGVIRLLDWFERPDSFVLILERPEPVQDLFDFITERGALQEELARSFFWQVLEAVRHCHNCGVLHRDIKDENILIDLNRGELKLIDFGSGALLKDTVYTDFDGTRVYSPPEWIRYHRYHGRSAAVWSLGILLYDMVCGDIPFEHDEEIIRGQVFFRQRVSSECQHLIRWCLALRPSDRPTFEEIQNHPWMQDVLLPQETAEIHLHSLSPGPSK
Method: (§2) Kinase Screening. Initial kinase screening was performed by Amphora Discovery Corporation (Durham, N.C.).

[4] = tested on: A549; experiment: IC50 in tumor cell lines (A549); format: cell-based; conditions: Table 1; lung tumor cell line A549
Method: as §1

[5] = tested on: PC3; experiment: IC50 in tumor cell lines (PC3); format: cell-based; conditions: Table 1; prostate tumor cell line PC3
Method: as §1

[6] = biological target: TrkB (Homo sapiens, UniProt Q16620); experiment: Initial kinase screening (Amphora), TrkB; format: biochemical; set-up: assay run by Amphora Discovery Corporation (Durham, N.C.); conditions: 10 μM compound
TrkB, sequence (Q16620 32-822): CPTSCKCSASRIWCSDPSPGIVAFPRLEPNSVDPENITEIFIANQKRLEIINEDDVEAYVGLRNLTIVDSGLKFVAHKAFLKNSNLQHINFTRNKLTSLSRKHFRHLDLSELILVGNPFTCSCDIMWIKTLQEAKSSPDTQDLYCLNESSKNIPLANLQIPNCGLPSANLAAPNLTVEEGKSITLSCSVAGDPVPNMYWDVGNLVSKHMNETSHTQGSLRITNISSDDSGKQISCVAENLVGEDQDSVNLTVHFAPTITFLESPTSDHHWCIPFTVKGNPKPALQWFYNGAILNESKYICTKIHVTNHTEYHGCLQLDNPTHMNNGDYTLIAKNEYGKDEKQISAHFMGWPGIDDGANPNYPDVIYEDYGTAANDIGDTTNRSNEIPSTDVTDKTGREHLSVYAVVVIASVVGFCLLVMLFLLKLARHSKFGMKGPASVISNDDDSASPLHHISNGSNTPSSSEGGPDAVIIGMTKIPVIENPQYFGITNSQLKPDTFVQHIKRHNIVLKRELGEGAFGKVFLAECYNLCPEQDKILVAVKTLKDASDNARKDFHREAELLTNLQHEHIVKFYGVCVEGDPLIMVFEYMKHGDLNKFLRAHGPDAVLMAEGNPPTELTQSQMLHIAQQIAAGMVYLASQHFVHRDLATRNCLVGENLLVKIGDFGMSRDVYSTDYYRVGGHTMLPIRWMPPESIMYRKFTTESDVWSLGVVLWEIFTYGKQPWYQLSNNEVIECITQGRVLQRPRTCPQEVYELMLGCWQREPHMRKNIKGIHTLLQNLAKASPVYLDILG
Method: as §2

[7] = tested on: H460; experiment: IC50 in tumor cell lines (H460); format: cell-based; conditions: Table 1; lung tumor cell line H460
Method: as §1

[8] = Solubility (statement); format: physicochemical
[9] = biological target: T1, CDK2/cyclin A (Homo sapiens, UniProt P24941); experiment: Initial kinase screening (Amphora), CDK2/cyclin A; format: biochemical; conditions: 10 μM compound
T1 construct: assay run by Amphora Discovery Corporation (Durham, N.C.)
Method: as §2

[10] = tested on: 48 protein kinases; experiment: Initial kinase screening (Amphora), panel of 48 protein kinases; format: biochemical; conditions: 10 μM compound
Method: as §2

[11] = biological target: T2, PDGFRα (Homo sapiens, UniProt P16234); experiment: Initial kinase screening (Amphora), PDGFRα; format: biochemical; conditions: 10 μM compound
T2 construct: assay run by Amphora Discovery Corporation (Durham, N.C.)
T2 sequence (P16234 24-1089, species assumed): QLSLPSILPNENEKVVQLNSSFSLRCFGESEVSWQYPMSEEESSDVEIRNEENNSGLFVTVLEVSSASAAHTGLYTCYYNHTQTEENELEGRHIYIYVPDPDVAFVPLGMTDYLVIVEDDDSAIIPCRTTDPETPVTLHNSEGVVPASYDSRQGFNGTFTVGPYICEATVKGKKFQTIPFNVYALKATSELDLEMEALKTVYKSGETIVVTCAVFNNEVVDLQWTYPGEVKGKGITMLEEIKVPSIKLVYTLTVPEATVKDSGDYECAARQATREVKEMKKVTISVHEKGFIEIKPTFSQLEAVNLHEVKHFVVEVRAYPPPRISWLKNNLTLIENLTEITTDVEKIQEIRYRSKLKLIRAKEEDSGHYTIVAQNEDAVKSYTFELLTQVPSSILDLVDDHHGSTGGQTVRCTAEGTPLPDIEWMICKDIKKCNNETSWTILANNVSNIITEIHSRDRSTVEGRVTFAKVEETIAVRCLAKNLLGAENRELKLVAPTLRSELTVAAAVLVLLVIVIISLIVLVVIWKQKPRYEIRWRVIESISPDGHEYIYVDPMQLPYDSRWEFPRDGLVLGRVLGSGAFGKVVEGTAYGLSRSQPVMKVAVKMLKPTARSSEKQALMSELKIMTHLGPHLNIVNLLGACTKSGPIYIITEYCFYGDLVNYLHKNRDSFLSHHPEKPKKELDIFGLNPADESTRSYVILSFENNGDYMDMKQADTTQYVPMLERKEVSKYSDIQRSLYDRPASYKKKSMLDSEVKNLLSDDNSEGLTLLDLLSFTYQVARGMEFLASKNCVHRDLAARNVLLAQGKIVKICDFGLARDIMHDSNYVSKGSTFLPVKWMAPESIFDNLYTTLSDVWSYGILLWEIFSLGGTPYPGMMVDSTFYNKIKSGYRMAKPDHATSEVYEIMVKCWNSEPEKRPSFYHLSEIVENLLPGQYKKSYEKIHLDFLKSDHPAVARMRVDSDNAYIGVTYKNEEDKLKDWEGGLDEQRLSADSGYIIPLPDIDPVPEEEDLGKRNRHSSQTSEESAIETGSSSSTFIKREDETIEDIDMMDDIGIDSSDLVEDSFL
Method: as §2

[12] = biological target: T3, PDGFRβ (Homo sapiens, UniProt P09619); experiment: Initial kinase screening (Amphora), PDGFRβ; format: biochemical; conditions: 10 μM compound
T3 construct: assay run by Amphora Discovery Corporation (Durham, N.C.)
T3 sequence (P09619 33-1106, species assumed): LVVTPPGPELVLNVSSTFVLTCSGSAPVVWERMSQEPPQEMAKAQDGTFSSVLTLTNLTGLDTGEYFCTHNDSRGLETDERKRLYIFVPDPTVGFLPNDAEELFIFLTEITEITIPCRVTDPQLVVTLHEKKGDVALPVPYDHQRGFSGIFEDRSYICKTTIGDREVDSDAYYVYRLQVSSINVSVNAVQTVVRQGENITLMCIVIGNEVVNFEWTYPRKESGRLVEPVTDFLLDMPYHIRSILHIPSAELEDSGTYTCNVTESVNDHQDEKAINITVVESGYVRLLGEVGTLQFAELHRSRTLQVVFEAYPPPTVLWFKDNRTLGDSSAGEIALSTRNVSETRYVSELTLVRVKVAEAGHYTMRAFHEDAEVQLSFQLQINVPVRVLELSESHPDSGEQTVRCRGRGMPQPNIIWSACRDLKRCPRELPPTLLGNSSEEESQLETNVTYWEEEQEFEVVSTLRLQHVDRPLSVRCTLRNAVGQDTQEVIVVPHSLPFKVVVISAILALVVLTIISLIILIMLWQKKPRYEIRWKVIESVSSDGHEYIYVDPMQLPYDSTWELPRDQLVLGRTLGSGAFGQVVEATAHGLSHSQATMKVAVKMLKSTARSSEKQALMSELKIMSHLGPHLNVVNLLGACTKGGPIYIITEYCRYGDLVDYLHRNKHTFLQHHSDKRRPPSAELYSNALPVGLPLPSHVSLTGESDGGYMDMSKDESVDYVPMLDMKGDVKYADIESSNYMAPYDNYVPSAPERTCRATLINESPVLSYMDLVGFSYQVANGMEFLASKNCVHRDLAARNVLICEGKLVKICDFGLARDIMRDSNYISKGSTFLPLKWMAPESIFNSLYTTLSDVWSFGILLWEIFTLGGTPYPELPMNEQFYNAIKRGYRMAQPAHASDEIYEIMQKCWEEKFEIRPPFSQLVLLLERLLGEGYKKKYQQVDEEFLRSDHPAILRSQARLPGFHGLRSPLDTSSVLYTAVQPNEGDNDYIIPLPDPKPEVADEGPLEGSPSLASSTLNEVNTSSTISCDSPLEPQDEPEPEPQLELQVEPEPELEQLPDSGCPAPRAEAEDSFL
Method: as §2

Structure (SMILES)	IC50 [1]	potency against BxPC3 cell lines (in words) [2]	inhibition of PIM-1 [3]	IC50 [4]	IC50 [5]	inhibition of TrkB [6]	IC50 [7]	selectivity index ([2]; ratio of the IC50 in BxPC3 DPC-4(+/+) to BxPC3 DPC-4(−/−) cells)	solubility (in words) [8]	inhibition of CDK2/cyclin A [9]	inhibition of any protein kinases (panel, in words) [10]	inhibition of PDGFRα [11]	inhibition of PDGFRβ [12]
COc1ccc(-c2cnc(-c3ccncc3-c3ccccc3)o2)cc1 [DPC043]	20 nM	retained potency	~50%	33 nM	9.9 nM	~50%	50 nM						
COc1ccc(-c2cnc(-c3cccc4c3-c3ccccc3C4=O)o2)cc1 [UA-62784, reference compound]		high potency						2 and 1.9	lack of solubility	57%	no significant (>50%) inhibition		
COc1ccc(-c2cnc(-c3ccccc3-c3ccccc3)o2)cc1 [DPC-026]		retained high potency										59%	43%
